Data published in patent publication US8778964B2, “Hydroxy-substituted imidazo[1,2-a]-pyridinecarboxamides and their use” (Bayer Pharma Aktiengesellschaft, priority 2012, dated 2014).
Structures can show the parent of a compound that is named as a salt.

The compounds below were run on recombinant guanylate cyclase reporter cell line (assay: Action on recombinant guanylate cyclase reporter cell line (MEC)). Conditions: in some cases mean values obtained from individual determinations.
Assay type: cell-based
Procedure, shortened: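 Cell-based reporter assay with recombinant guanylate cyclase expressed in a reporter cell line, per a published method. Activity reported as minimal effective concentration (MEC), in some cases as the mean of individual determinations.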
`Cc1nc2c(OCc3c(F)cccc3F)cccn2c1C(=O)N[C@@H](CO)CCCO` [Example 130, 8-[(2,6-difluorobenzyl)oxy]-N-[(2R)-1,5-dihydroxypentan-2-yl]-2-methylimidazo[1,2-a]pyridine-3-carboxamide] was tested, and the minimal effective concentration was 1 µM. With `CCCC[C@H](CO)NC(=O)c1c(C)nc2c(OCc3c(F)cccc3F)cc(Cl)cn12` [Example 131, 6-chloro-8-[(2,6-difluorobenzyl)oxy]-N-[(2R)-1-hydroxyhexan-2-yl]-2-methylimidazo[1,2-a]pyridine-3-carboxamide] the minimal effective concentration was 0.01 µM. Compound `CCCC[C@H](CO)NC(=O)c1c(C)nc2c(OCc3c(F)cccc3F)cc(F)cn12` [Example 132, 8-[(2,6-difluorobenzyl)oxy]-6-fluoro-N-[(2R)-1-hydroxyhexan-2-yl]-2-methylimidazo[1,2-a]pyridine-3-carboxamide] has a minimal effective concentration of 0.03 µM. `CCCC[C@H](CO)NC(=O)c1c(C)nc2c(OCc3c(F)cccc3F)cc(C)cn12` [Example 133, 8-[(2,6-difluorobenzyl)oxy]-N-[(2R)-1-hydroxyhexan-2-yl]-2,6-dimethylimidazo[1,2-a]pyridine-3-carboxamide] was tested, and the minimal effective concentration was 0.01 µM. `CCCC[C@H](CO)NC(=O)c1c(C2CC2)nc2c(OCc3c(F)cccc3F)cccn12` [Example 134, 2-cyclopropyl-8-[(2,6-difluorobenzyl)oxy]-N-[(2R)-1-hydroxyhexan-2-yl]imidazo[1,2-a]-pyridine-3-carboxamide] showed a minimal effective concentration of 0.3 µM. Work on `Cc1nc2c(OCc3c(F)cccc3F)cccn2c1C(=O)N[C@@H](CO)CC[C@@H](O)C(F)(F)F` [Example 135, 8-[(2,6-difluorobenzyl)oxy]-2-methyl-N-[(2R, 5R)-6,6,6-trifluoro-1,5-dihydroxyhexan-2-yl]imidazo[1,2-a]pyridine-3-carboxamide trifluoroacetate (1:1)] yielded a minimal effective concentration of 0.1 µM. `Cc1nc2c(OCc3c(F)cccc3F)cccn2c1C(=O)NCC(O)COc1ccc(F)cc1` (stereo not drawn) [Example 136, 8-[(2,6-difluorobenzyl)oxy]-N-[3-(4-fluorophenoxy)-2-hydroxypropyl]-2-methylimidzao[1,2-a]pyridine-3-carboxamide] showed a minimal effective concentration of 3 µM. Compound `Cc1nc2c(OCc3c(F)cccc3F)cccn2c1C(=O)NCC(O)COc1ccccc1` (stereo not drawn) [Example 137, 8-[(2,6-difluorobenzyl)oxy]-N-(2-hydroxy-3-phenoxypropyl)-2-methylimidazo[1,2-a]-pyridine-3-carboxamide] has a minimal effective concentration of 3 µM. In the case of `CCCC[C@@H](NC(=O)c1c(C)nc2c(OCc3c(F)cccc3F)cccn12)C(C)O` (stereo partly drawn) [Example 139, 8-[(2,6-Difluorobenzyl)oxy]-N-[(3R)-2-hydroxyheptan-3-yl]-2-methylimidazo[1,2-a]pyridine-3-carboxamide], the minimal effective concentration is reported as 0.03 µM. `CCCC[C@@H](NC(=O)c1c(C)nc2c(OCc3c(F)cccc3F)cccn12)C(C)O` (stereo partly drawn) [Example 140, 8-[(2,6-Difluorobenzyl)oxy]-N-[(3R)-2-hydroxyheptan-3-yl]-2-methylimidazo[1,2-a]pyridine-3-carboxamide] gave a minimal effective concentration of 0.03 µM. In the case of `CCCC[C@@H](NC(=O)c1c(C)nc2c(OCc3c(F)cccc3F)cccn12)C(O)C(F)(F)F` (stereo partly drawn) [Example 141, 8-[(2,6-Difluorobenzyl)oxy]-2-methyl-N-[(3R)-1,1,1-trifluoro-2-hydroxyheptan-3-yl]imidazo[1,2-a]pyridine-3-carboxamide], the minimal effective concentration is reported as 0.1 µM. `CCCC[C@@H](NC(=O)c1c(C)nc2c(OCc3c(F)cccc3F)cccn12)C(O)C(F)(F)F` (stereo partly drawn) [Example 142, 8-[(2,6-Difluorobenzyl)oxy]-2-methyl-N-[(3R)-1,1,1-trifluoro-2-hydroxyheptan-3-yl]imidazo[1,2-a]pyridine-3-carboxamide] was tested, and the minimal effective concentration was 0.1 µM. `CCCC[C@@H](NC(=O)c1c(C)nc2c(OCc3c(F)cccc3F)cccn12)C(C)(C)O` [Example 147, 8-[(2,6-Difluorobenzyl)oxy]-N-[(3R)-2-hydroxy-2-methylheptan-3-yl]-2-methylimidazo[1,2-a]-pyridine-3-carboxamide] was tested, and the minimal effective concentration was 0.1 µM. `Cc1nc2c(OCc3c(F)cccc3F)cccn2c1C(=O)NCCC(C)(C)O` [Example 153, 8-[(2,6-difluorobenzyl)oxy]-N-(3-hydroxy-3-methylbutyl)-2-methylimidazo[1,2-a]pyridine-3-carboxamide] was tested, and the minimal effective concentration was 0.3 µM. `CCCC[C@H](CO)NC(=O)c1c(C)nc2c(OCc3c(F)cccc3F)cc(C#N)cn12` [Example 157, 6-Cyano-8-[(2,6-difluorobenzyl)oxy]-N-[(2R)-1-hydroxyhexan-2-yl]-2-methylimidazo[1,2-a]-pyridine-3-carboxamide] gave a minimal effective concentration of 0.065 µM. `CCCC[C@H](CO)NC(=O)c1c(C)nc2c(OCCC(C)C)cccn12` [Example 159, N-[(2R)-1-Hydroxyhexan-2-yl]-2-methyl-8-(3-methylbutoxy)imidazo[1,2-a]pyridine-3-carboxamide] showed a minimal effective concentration of 1 µM. `COC(=O)[C@H](CO)NC(=O)c1c(C)nc2c(OCc3c(F)cccc3F)cccn12` [Example 164, Methyl N-({8-[(2,6-difluorobenzyl)oxy]-2-methylimidazo[1,2-a]pyridin-3-yl}carbonyl)-L-serinate] was tested, and the minimal effective concentration was 0.2 µM. Work on `Cc1nc2c(OCc3c(F)cccc3F)cccn2c1C(=O)N[C@@H](CO)C(C)(C)O` [Example 165, 8-[(2,6-Difluorobenzyl)oxy]-N-[(2S)-1,3-dihydroxy-3-methylbutan-2-yl]-2-methylimidazo[1,2-a]-pyridine-3-carboxamide] yielded a minimal effective concentration of 1 µM. `CCCC[C@H](CO)NC(=O)c1c(C)nc2c(OCCC(C)C)cc(C)cn12` [Example 166, N-[(2R)-1-Hydroxyhexan-2-yl]-2,6-dimethyl-8-(3-methylbutoxy)imidazo[1,2-a]pyridine-3-carboxamide] was tested, and the minimal effective concentration was 1 µM. In the case of `CCCCC(NC(=O)c1c(C)nc2c(OCCC(C)C)cc(C)cn12)C(C)(C)O` (stereo not drawn) [Example 167, ent-N-(2-Hydroxy-2-methylheptan-3-yl)-2,6-dimethyl-8-(3-methylbutoxy)imidazo[1,2-a]pyridine-3-carboxamide], the minimal effective concentration is reported as 2 µM. Compound `CCCC[C@H](CO)NC(=O)c1c(C)nc2c(OCCC(C(F)(F)F)C(F)(F)F)cc(C)cn12` [Example 169, N-[(2R)-1-Hydroxyhexan-2-yl]-2,6-dimethyl-8-[4,4,4-trifluoro-3-(trifluoromethyl)butoxy]imidazo-[1,2-a]pyridine-3-carboxamide] has a minimal effective concentration of 0.3 µM. For `Cc1cc(OCCC(C(F)(F)F)C(F)(F)F)c2nc(C)c(C(=O)NC3c4ccccc4CC3O)n2c1` (stereo not drawn) [Example 172, N-(2-Hydroxy-2,3-dihydro-1H-inden-1-yl)-2,6-dimethyl-8-[4,4,4-trifluoro-3-(trifluoromethyl)-butoxy]imidazo[1,2-a]pyridine-3-carboxamide], the minimal effective concentration was 1 µM. `Cc1cc(OCCC(C(F)(F)F)C(F)(F)F)c2nc(C)c(C(=O)NC3CCCC3O)n2c1` (stereo not drawn) [Example 173, N-(2-hydroxycyclopentyl)-2,6-dimethyl-8-[4,4,4-trifluoro-3-(trifluoromethyl)butoxy]imidazo[1,2-a]pyridine-3-carboxamide] showed a minimal effective concentration of 3 µM. For `CCCC[C@H](CO)NC(=O)c1c(C)nc2c(OCc3c(F)cccc3F)c(F)ccn12` [Example 177, 8-[(2,6-Difluorobenzyl)oxy]-7-fluoro-N-[(2R)-1-hydroxyhexan-2-yl]-2-methylimidazo[1,2-a]-pyridine-3-carboxamide], the minimal effective concentration was 1 µM.
